Results published in patent US8648201B2, “Aminopyridine derivatives for treating tumors and inflammatory diseases” (MERCK PATENT GmbH, priority 2009, dated 2014).

Experiments:
PDK1 [1] = target: T1, PDK1 (Homo sapiens, UniProt O15530); assay: Test for the inhibition of PDK1 (flashplate, 33P-ATP); assay type: biochemical; settings: enzyme
T1 construct: His6 (N)
T1 sequence (O15530 51-556 limits assumed): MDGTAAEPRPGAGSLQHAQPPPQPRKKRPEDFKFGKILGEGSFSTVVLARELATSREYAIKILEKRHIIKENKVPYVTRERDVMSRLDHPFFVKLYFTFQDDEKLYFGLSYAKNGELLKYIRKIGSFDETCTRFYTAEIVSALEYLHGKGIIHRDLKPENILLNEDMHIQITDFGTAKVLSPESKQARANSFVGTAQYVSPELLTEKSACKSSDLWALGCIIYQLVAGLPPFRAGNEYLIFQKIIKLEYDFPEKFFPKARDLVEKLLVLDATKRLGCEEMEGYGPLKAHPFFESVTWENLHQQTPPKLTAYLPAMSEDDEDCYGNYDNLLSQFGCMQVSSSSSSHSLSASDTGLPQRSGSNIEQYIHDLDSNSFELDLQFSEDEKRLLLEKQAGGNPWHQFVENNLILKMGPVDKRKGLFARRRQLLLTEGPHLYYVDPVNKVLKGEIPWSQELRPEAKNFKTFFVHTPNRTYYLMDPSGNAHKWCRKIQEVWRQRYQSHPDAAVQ
Protocol: The experimental batches are carried out in a flashplate system with 384 wells/microtitration plate.
In each case, the PDK1 sample His6-PDK1(1-50)(3.4 nM), the PDK1 substrate biotin-bA-bA-[…] (400 nM), 4 μM ATP (with 0.2 μCi of ^33P-ATP/well) and the test substance in 50 μl of conventional experimental solution per well are incubated at 30° C. for 60 min. The test substances are employed in corresponding concentrations (if desired in a dilution series). The control is carried out without test substance. The reaction is stopped using standard methods and washed. The activity of the kinase is measured via the incorporated radioactivity in top count. In order to determine the non-specific kinase reaction (blank value), the experimental batches are carried out in the presence of 100 nM staurosporin.
The radioactivity (decompositions per minute) of the blank value (no use of test substance in the presence of staurosporin) is subtracted from all other radioactivity values. The controls (kinase activity without test substance) are set equal to 100 percent and all other radioactivity values (after subtracting the blank value) are expressed set in relation thereto (for example in % of the control).
IC50 values (50% inhibition) are determined with the aid of statistics programmes, such as, for example, RS1.

PDK1 [2] = target: T2, PDK1 (Homo sapiens, UniProt O15530); assay: IC50 PDK1 (cell); assay type: cell-based
T2 construct: endogenous in cells; host or cells: commercially available colon carcinoma, ovary, prostate or breast cell lines (none named)
T2 sequence (O15530 1-556): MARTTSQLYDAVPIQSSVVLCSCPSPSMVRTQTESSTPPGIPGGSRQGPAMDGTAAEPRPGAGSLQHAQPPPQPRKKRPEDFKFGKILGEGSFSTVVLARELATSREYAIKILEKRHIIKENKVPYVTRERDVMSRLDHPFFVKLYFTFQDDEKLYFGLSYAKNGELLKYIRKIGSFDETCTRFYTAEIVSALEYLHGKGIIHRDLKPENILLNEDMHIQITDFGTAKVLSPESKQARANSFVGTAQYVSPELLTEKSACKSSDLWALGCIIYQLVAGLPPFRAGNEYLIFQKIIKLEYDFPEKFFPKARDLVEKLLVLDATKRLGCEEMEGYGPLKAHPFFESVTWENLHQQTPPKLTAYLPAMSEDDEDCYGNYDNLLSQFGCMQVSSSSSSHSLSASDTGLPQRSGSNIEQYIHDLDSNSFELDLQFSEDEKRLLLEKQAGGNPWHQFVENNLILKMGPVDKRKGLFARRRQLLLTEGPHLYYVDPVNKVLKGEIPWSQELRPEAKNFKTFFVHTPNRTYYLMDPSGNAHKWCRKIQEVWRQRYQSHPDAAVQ
Protocol: The cells are sown in a suitable cell density in microtitre plates (96-well format) and the test substances are added in the form of a concentration series. After four further days of cultivation in serum-containing medium, the tumour cell proliferation/tumour cell vitality can be determined by means of an Alamar Blue test system. A defined number of cells (for example 2000 cells) per culture/well in a volume of 180 μl of culture medium are sown in microtitre plates (96 well cell-culture plates) using a multichannel pipette. The cells are subsequently cultivated in a CO2 incubator (37° C. and 10% CO2). The test substances are dissolved, for example, in DMSO and subsequently employed in corresponding concentration (if desired in a dilution series) in the cell culture medium. The dilution steps can be adapted depending on the efficiency of the active ingredients and the desired spread of the concentrations. Cell culture medium is added to the test substances in corresponding concentrations. The addition of the test substances to the cells can take place on the same day as the sowing of the cells. To this end, in each case 20 μl of substance solution from the predilution plate are added to the cultures/wells. The cells are cultivated for a further 4 days at 37° Celsius and 10% CO2. In each case, 20 μl of Alamar Blue reagent are added per well, and the microtitre plates are incubated, for example, for a further seven hours in a CO2 incubator (at 37° C. and 10% CO2). The plates are measured in a reader with a fluorescence filter at a wavelength of 540 nm. The plates can be shaken gently immediately before the measurement. The absorbance value of the medium control (no cells and test substances used) is subtracted from all other absorbance values. The controls (cells without test substance) are set equal to 100 percent, and all other absorbance values are set in relation thereto (for example in % of control): Calculation: 100*(value with cells and test substance−value of medium control)/(value with cells−value of medium control) IC50 values (50% inhibition) are determined with the aid of statistics programs, such as, for example, RS1.

Compound	IC50 (PDK1 [1])	IC50 (PDK1 [2])
CCC1CC(=O)NN=C1c1ccc2[nH]c(-c3cc(-c4cnn(C)c4)cnc3N)nc2c1 (centres unmarked) [Compound A4, 6-{2-[2-Amino-5-(1-methyl-1H-pyrazol-4-yl)-pyridin-3-yl]-1H-benzimidazol-5-yl}-5-ethyl-4,5-dihydro-2H-pyridazin-3-one]	0.001 to 0.1 µM	0.1 to 10 µM
Nc1ncc(-c2cnn(C3CCNCC3)c2)cc1-c1nc2cc(OC(F)(F)F)ccc2[nH]1 [Compound A67]	0.001 to 0.1 µM	0.1 to 10 µM
CC1CC(=O)NN=C1c1ccc2[nH]c(-c3cc(-c4cnn(CCN5CCOCC5)c4)cnc3N)nc2c1 (centres unmarked) [Compound A9, 6-(2-{2-amino-5-[1-(2-morpholin-4-ylethyl)-1H-pyrazol-4-yl]-pyridin-3-yl}-1H-benzimidazol-5-yl)-5-methyl-4,5-dihydro-2H-pyridazin-3-one]	0.001 to 0.1 µM	0.1 to 10 µM
COCCn1cc(-c2cnc(N)c(-c3nc4cc(C5=NNC(=O)CC5C)ccc4[nH]3)c2)cn1 (centres unmarked) [Compound A12]	0.001 to 0.1 µM	0.1 to 10 µM
COc1ccc2nc(-c3cc(-c4cnn(C5CCN(C)CC5)c4)cnc3N)[nH]c2c1 [Compound A106, 3-(6-Methoxy-1H-benzimidazol-2-yl)-5-[1-(1-methyl-piperidin-4-yl)-1H-pyrazol-4-yl]pyridin-2-ylamine]	0.001 to 0.1 µM	> 10 µM
CC1CC(=O)NN=C1c1ccc2nc(-c3cc(-c4cnn(CCO)c4)cnc3N)[nH]c2c1 (centres unmarked) [Compound A29, 6-(2-{2-amino-5-[1-(2-hydroxyethyl)-1H-pyrazol-4-yl]pyridin-3-yl}-3H-benzimidazol-5-yl)-5-methyl-4,5-dihydro-2H-pyridazin-3-one]	0.001 to 0.1 µM	> 10 µM
COCCCn1cc(-c2cnc(N)c(-c3nc4cc(C5=NNC(=O)CC5C)ccc4[nH]3)c2)cn1 (centres unmarked) [Compound A13, 6-(2-{2-Amino-5-[1-(3-methoxypropyl)-1H-pyrazol-4-yl]-pyridin-3-yl}-1H-benzimidazol-5-yl)-5-methyl-4,5-dihydro-2H-pyridazin-3-one]	0.001 to 0.1 µM	0.1 to 10 µM
CN(C)c1ccc2nc(-c3cc(-c4cnn(C)c4)cnc3N)[nH]c2c1 [Compound A68]	0.001 to 0.1 µM	> 10 µM
CC1CC(=O)NN=C1c1ccc2[nH]c(-c3cc(-c4cnn(C5CCN(C)CC5)c4)cnc3N)nc2c1 (centres unmarked) [Compound A16]	0.001 to 0.1 µM	> 10 µM
CC1CC(=O)NN=C1c1ccc2[nH]c(-c3cc(-c4cnn(CCN(C)C)c4)cnc3N)nc2c1 (centres unmarked) [Compound A15, 6-(2-{2-Amino-5-[1-(2-dimethylaminoethyl)-1H-pyrazol-4-yl]pyridin-3-yl}-1H-benzimidazol-5-yl)-5-methyl-4,5-dihydro-2H-pyridazin-3-one]	0.001 to 0.1 µM	> 10 µM
CC(C)(C)c1ccc2nc(-c3cc(-c4cnn(C5CCNCC5)c4)cnc3N)[nH]c2c1 [Compound A53]	0.001 to 0.1 µM	0.1 to 10 µM
Cn1cc(-c2cnc(N)c(-c3nc4c(O)cccc4[nH]3)c2)cn1 [Compound A102, 2-[2-Amino-5-(1-methyl-1H-pyrazol-4-yl)pyridin-3-yl]-1H-benzimidazol-4-ol]	0.001 to 0.1 µM	0.1 to 10 µM
Cn1cc(-c2cnc(N)c(-c3nc4ccc(C(O)c5ccccc5)cc4[nH]3)c2)cn1 (centres unmarked) [Compound A80]	0.001 to 0.1 µM	> 10 µM
CC1CC(=O)NN=C1c1ccc2[nH]c(-c3cc(-c4cnn(C(C)C)c4)cnc3N)nc2c1 (centres unmarked) [Compound A11, 6-{2-[2-Amino-5-(1-isopropyl-1H-pyrazol-4-yl)pyridin-3-yl]-1H-benzimidazol-5-yl}-5-methyl-4,5-dihydro-2H-pyridazin-3-one]	0.001 to 0.1 µM	0.1 to 10 µM
C[C@@H]1CC(=O)NN=C1c1ccc2nc(-c3cc(-c4cnn(C)c4)cnc3N)[nH]c2c1 (single isomer, unassigned) [Compound A2]	0.001 to 0.1 µM	0.1 to 10 µM
C[C@H]1CC(=O)NN=C1c1ccc2nc(-c3cc(-c4cnn(C)c4)cnc3N)[nH]c2c1 (single isomer, unassigned) [Compound A3]	0.001 to 0.1 µM	> 10 µM
